The record followed here is patent US10005779B2, “1′,4′-thio nucleosides for the treatment of HCV” (priority 2013, dated 2018).

Read-outs that look alike come from different tables or passages of the source.

A short description of data set [1]: Cytotoxicity evaluation, CellTiter-Blue Cell Viability Assay. The conditions noted are these: human, Zluc cells (HCV replicon cells). Format: cell-based. How it is done:
For cytotoxicity evaluation, Zluc cells were treated with compound as described herein, and cell viability was monitored using the CellTiter-Blue Cell Viability Assay (Promega) by adding 20 μL of the assay solution to each well. The plates were then incubated at 37° C./5% CO2 for at least 3 hours.

Data set [2] deals with HCV genotype 1b replicon in Huh-7-derived cell line (Zluc). As to the kind of experiment: microbe, parasite or virus in culture. It counts as cell-based. The conditions noted are these: Hepatitis C virus, read-out: HCV Replicon EC50. How it is done:
Huh-7-derived cell line (Zluc) that harbors an HCV genotype 1b replicon and a luciferase reporter gene was grown in Dulbecco's Modified Eagle Medium (DMEM) supplemented with 10% fetal bovine serum, 2 mM GlutaMAX, 1% MEM nonessential amino acids, 100 IU/mL penicillin, 100 μg/mL streptomycin, and 0.5 mg/mL Geneticin® (G418). For dose response testing the cells were seeded in 96-well plates at 7.5×10^3 cells per well in a volume of 50 μL, and incubated at 37° C./5% CO2. Drug solutions were made up freshly in Huh-7 media as 2× stocks. Ten additional 5-fold dilutions were prepared from these stocks in DMEM without G418. At least three hours after Zluc cells were seeded, drug treatment was initiated by adding 50 μL of drug dilutions to the plates in duplicate. […] Cells were then incubated at 37° C./5% CO2. Alternatively, compounds were tested at two concentrations (1 μM and 10 μM). […] For this, media was removed from the plates via gentle tapping. Fifty microliters of ONE-glo luciferase assay reagent was added to each well. […] The EC50 values were calculated from dose response curves from the resulting best-fit equations determined by Microsoft Excel and XLfit 4.1 software.

The target in data set [3] is T1, wild-type HCV genotype 1b NS5B polymerase (Hepatitis C virus genotype 1b, UniProt Q9WMX2).
T1 construct: recombinant HCV polymerases (with a deletion of the 21 carboxy terminal amino acids); made in house
As to the kind of experiment: HCV polymerase enzyme assay, wild-type. Format: biochemical. An excerpt:
(§1) Test compounds in the form of nucleoside triphosphates were examined for inhibitory activity against purified HCV polymerase in a standard assay. Bacterial expression constructs encoding the approximately 65 kDa HCV genotype 1b NS5B protein were used to generate recombinant HCV polymerases (with a deletion of the 21 carboxy terminal amino acids). Both the wild-type genotype 1b protein and protein containing the S282T mutation were expressed and purified for use in the enzymatic activity assay.
(§2) The enzymatic activity assay measured the inhibitory effect of increasing concentrations of test compound on the incorporation of α-[^33P]-labeled nucleotide into trichloroacetic acid-precipitable material. Recombinant polymerase and synthetic RNA template were combined in reaction buffer containing ribonucleoside triphosphates, α-[^33P]-labeled nucleotide and eight concentrations of test compound in three-fold dilutions. Reactions were incubated for two hours at 30° C.
(§3) Reactions were terminated by the addition of ice-cold trichloroacetic acid and sodium pyrophosphate to promote precipitation of newly-synthesized ribonucleic acid. Precipitable material from the reactions was collected by filtration onto 96-well filter plates, washed extensively with water, and quantified by liquid scintillation.
(§4) The inhibitory activity of test compounds was determined by fitting results to dose-response curves using XLfit software.

For data set [4], the target named is T2, HCV genotype 1b NS5B polymerase containing the S282T mutation (Hepatitis C virus genotype 1b, UniProt Q9WMX2, S2701T).
T2 construct: recombinant HCV polymerases (with a deletion of the 21 carboxy terminal amino acids); made in house
Kind of data set: HCV polymerase enzyme assay, S282T mutant. It counts as biochemical.
Excerpt: as §1, §2, §3, §4

Where [5] appears, read: Zluc cells, 72 hours of incubation, luciferase readout.

Compound `CC(C)OC(=O)[C@H](C)NP(=O)(OCCSC(=O)C(C)(C)C)OC[C@H]1S[C@@H](n2ccc(=O)[nH]c2=O)[C@H](O)[C@@H]1O` (single isomer, unassigned) [4b diastereomer 1] showed a CC50 at 72 h in data set [1] of more than 50 µM. For the same compound, the concentration giving a half-maximal response (EC50) in data set [2] (setting [5]) is more than 10 µM.

`CC(C)OC(=O)[C@H](C)NP(=O)(OCCSC(=O)C(C)(C)C)OC[C@H]1S[C@@H](n2ccc(=O)[nH]c2=O)[C@H](O)[C@@H]1O` (mixture of isomers) [4b mixture of diastereomers] yielded a 50% cytotoxic concentration (CC50) at 72 h in data set [1] of more than 50 µM. Also, the concentration for a half-maximal effect (EC50) in data set [2] (setting [5]) is more than 10 µM.

On to `CC(C)OC(=O)[C@H](C)N[P@@](=O)(OC[C@H]1S[C@@H](n2ccc(=O)[nH]c2=O)[C@H](O)[C@@H]1O)Oc1ccccc1` [Compound 2bi], for which the CC50 at 72 h in data set [1] is more than 50 µM. The half-maximal effective concentration (EC50) in data set [2] (setting [5]) was more than 10 µM.

The compound `CC(C)OC(=O)[C@H](C)NP(=O)(OC[C@H]1S[C@@H](n2ccc(=O)[nH]c2=O)[C@](C)(O)[C@@H]1O)Oc1ccccc1` (single isomer, unassigned) [1b diastereomer 1] displayed a CC50 at 72 h in data set [1] of more than 50 µM. Also, the EC50 in data set [2] (72 h) was more than 10 µM.

For `CC(C)OC(=O)[C@H](C)N[P@](=O)(OC[C@H]1S[C@@H](n2ccc(=O)[nH]c2=O)[C@H](O)[C@@H]1O)Oc1ccccc1` [Compound 2bii], in data set [1], the cytotoxic concentration (CC50) at 72 h is more than 50 µM. The half-maximal effective concentration (EC50) in data set [2] (setting [5]) was more than 10 µM.

`CC(C)OC(=O)[C@@H](C)NP(=O)(OC[C@H]1S[C@@H](n2ccc(=O)[nH]c2=O)[C@H](O)[C@@H]1O)Oc1ccccc1` (mixture of isomers) [2a mixture of diastereomers] showed a CC50 at 72 h in data set [1] of more than 50 µM. Further, in data set [2] (setting [5]), the 50% effective concentration (EC50) was more than 10 µM.

As for `Nc1nc2c(ncn2[C@@H]2S[C@H](COP(=O)(O)OP(=O)(O)OP(=O)(O)O)[C@@H](O)[C@H]2O)c(=O)[nH]1` [Compound 203], the half-maximal inhibitory concentration (IC50) in data set [3] was in the range of 0.25 to 1 µM; in data set [4], 1 to 10 µM.

`CC(C)(C)C(=O)SCCOP(=O)(NCc1ccccc1)OC[C@H]1S[C@@H](n2ccc(=O)[nH]c2=O)[C@H](O)[C@@H]1O` (mixture of isomers) [3 mixture of diastereomers] displayed a CC50 at 72 h in data set [1] of more than 50 µM. For the same compound, the EC50 in data set [2] (setting [5]) was more than 10 µM.

Regarding `O=c1ccn([C@@H]2S[C@H](COP(=O)(O)OP(=O)(O)OP(=O)(O)O)[C@@H](O)[C@H]2O)c(=O)[nH]1` [Compound 202], the IC50 in data set [3] and in data set [4] was 0.25 to 1 µM each time.

Take `C[C@@]1(O)[C@H](O)[C@@H](COP(=O)(O)OP(=O)(O)OP(=O)(O)O)S[C@H]1n1ccc(=O)[nH]c1=O` [Compound 201]: the results for the IC50 in data set [3] and in data set [4] were 1 to 10 µM and more than 10 µM, respectively.
